Article PMC2818674 (Bioorganic & medicinal chemistry, 2009)

Columns and labels:
Plasma stability assay = assay type: in vitro ADME, rat; details: for plasma stability: after 1 h of incubation in rat plasma; for remaining at 1 h, 1 μM: rat, fresh rat plasma
PAMPA permeability assay = assay type: in vitro ADME; details: pH 7.4
Akt = experiment: Selectivity profile: Akt; assay type: biochemical; details: for IC50: read-out: Akt, IC50, selectivity profile

| plasma stability (Plasma stability assay) | remaining at 1 h, 1 μM (Plasma stability assay) [%] | Cell permeability, PAMPA % Flux (PAMPA permeability assay) [%] | IC50 (Akt) [µM] | activity against the kinase Akt (Akt) | Compound |
| --- | --- | --- | --- | --- | --- |
| degraded rapidly | 0 | 5.5 | > 100 |  | COc1ccc(CCNc2nnc(Sc3ncc([N+](=O)[O-])s3)s2)cc1OC [BI-90H10, N-(3,4-dimethoxyphenethyl)-5-(5-nitrothiazol-2-ylthio)-1,3,4-thiadiazol-2-amine] |
| degraded rapidly | 35 | 49.8 | > 100 |  | CCCNc1nnc(Sc2ncc([N+](=O)[O-])s2)s1 [BI-90H6, 5-(5-nitrothiazol-2-ylthio)-N-propyl-1,3,4-thiadiazol-2-amine] |
|  |  |  | > 100 |  | CCC(C)Nc1nnc(Sc2ncc([N+](=O)[O-])s2)s1 (stereo not drawn) [BI-98A10, N-sec-butyl-5-(5-nitrothiazol-2-ylthio)-1,3,4-thiadiazol-2-amine] |
|  | 42 | 30 |  |  | O=[N+]([O-])c1cnc(Sc2nnc(O)n2-c2ccc3c(c2)OCCO3)s1 [BI-78D3, reference compound] |
|  | 68 | 76.3 | > 100 | practically inactive | COCCNc1nnc(Sc2ncc([N+](=O)[O-])s2)s1 [BI-90H9, N-(2-methoxyethyl)-5-(5-nitrothiazol-2-ylthio)-1,3,4-thiadiazol-2-amine] |
